“Also recorded” adds a separate entry of the source.
Assays:
[1] = molecular target: T1, Group VIA iPLA2 (GVIA PLA2) (Homo sapiens, UniProt O60733); assay: In vitro Group VIA iPLA2 mixed micelle assay; type: biochemical; details: for Inhibition of GVIA PLA2: at highest dose; for iPLA2 inh, XI(50): Table 3; for inhibition at 0.091 mole fraction: read-out: iPLA2 inh, percent inhibition
T1 sequence (O60733 1-806): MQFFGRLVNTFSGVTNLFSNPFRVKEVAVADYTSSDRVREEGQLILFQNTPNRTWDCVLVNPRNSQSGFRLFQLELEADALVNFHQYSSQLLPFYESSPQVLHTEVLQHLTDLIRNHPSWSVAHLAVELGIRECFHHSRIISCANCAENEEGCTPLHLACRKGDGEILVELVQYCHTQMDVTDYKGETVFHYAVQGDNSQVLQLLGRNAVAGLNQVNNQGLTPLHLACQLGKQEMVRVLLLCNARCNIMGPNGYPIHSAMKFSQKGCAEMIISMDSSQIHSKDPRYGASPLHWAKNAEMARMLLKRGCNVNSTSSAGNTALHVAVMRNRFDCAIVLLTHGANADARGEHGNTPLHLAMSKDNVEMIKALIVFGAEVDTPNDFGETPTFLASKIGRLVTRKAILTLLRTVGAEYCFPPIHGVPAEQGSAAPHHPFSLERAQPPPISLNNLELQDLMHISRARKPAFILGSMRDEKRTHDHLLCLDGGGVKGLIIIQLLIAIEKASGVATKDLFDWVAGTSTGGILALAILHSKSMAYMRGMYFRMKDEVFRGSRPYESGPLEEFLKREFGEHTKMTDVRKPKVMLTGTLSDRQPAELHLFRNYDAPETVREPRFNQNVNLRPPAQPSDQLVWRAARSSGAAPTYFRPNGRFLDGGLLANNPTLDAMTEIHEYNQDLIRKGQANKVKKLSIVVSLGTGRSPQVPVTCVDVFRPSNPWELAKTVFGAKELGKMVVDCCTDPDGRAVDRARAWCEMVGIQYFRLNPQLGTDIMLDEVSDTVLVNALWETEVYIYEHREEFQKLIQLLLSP
Method: (§1) Numerous 2-oxoamides were tested for inhibition of PLA2s in in vitro assay systems. The data, summarized in Tables 1a, 1b and 2 are represented as XI(50) values unless otherwise noted. XI(50) is defined as the inhibitor concentration that produced 50% inhibition. XI(50) is used as opposed to the more common IC50 because GIVA and GVIA PLA2 are active at a two-dimensional lipid interface rather than in three-dimensional solution. (Deems, Anal. Biochem., 287:1-16, 2000). The 2-oxoamide inhibitors likely partition to the micelle interface and therefore must be represented as a percentage of surface concentration (mole fraction) as opposed to bulk concentration (molar units). (Kokotos, et al., J. Med. Chem., 45:2891-2893, 2002).
(§2) In vitro Group IV cPLA2 and Group VI iPLA2 assays were done as previously described (Kokotos, et al., supra, 2002). Briefly, 100 μM lipid substrate and 100,000 cpm radiolabeled analog were dried down under N2 and dissolved in assay buffer containing 400 μM Triton X-100 to yield a mixed micelle substrate solution. Inhibitors dissolved in DMSO were added to the reaction tubes and allowed to incubate with substrate for five minutes at 40° C. Pure enzyme was added to yield a final volume of 500 μl, and digestion was carried out at 40° C. for 30 minutes. Reactions were quenched and extracted using the Dole method and products were quantified by liquid scintillation counting. Percent inhibition was determined at a range of inhibitor mole fraction concentrations for XI(50) calculations.

[2] = molecular target: T2, Group IVA cPLA2 (GIVA PLA2) (Homo sapiens, UniProt P47712); assay: In vitro Group IVA cPLA2 mixed micelle assay; type: biochemical; details: for Inhibition of GIVA PLA2: at highest dose; for cPLA2 inh, XI(50): Table 3; for inhibition at 0.091 mole fraction: read-out: cPLA2 inh, percent inhibition (converted)
T2 sequence (P47712 1-749): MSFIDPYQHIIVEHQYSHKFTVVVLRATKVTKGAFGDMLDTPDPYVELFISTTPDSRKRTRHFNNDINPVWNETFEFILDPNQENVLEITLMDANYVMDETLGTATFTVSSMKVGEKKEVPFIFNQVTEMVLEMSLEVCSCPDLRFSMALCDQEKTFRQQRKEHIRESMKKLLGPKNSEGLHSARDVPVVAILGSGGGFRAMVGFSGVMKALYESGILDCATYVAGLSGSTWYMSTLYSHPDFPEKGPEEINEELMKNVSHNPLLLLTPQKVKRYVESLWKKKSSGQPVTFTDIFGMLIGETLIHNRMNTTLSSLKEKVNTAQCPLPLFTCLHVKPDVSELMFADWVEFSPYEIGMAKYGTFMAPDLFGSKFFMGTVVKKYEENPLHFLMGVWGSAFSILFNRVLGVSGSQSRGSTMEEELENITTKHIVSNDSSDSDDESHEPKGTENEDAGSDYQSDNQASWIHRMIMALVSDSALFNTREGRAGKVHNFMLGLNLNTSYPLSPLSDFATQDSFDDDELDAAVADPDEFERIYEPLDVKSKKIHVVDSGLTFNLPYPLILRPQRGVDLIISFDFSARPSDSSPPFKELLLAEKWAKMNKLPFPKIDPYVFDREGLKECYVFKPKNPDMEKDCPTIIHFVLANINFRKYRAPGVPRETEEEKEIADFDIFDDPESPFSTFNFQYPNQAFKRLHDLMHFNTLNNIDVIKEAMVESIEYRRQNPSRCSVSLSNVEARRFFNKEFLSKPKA
Method: as §1, §2

GV sPLA2 = molecular target: T3, GV sPLA2 (Homo sapiens, UniProt P39877); assay: GV sPLA2 activity assay; type: biochemical; details: for efficacy against sPLA2: at 0.091 mole fraction; for inhibition at 0.091 mole fraction: read-out: sPLA2 inh., percent inhibition
T3 sequence (P39877 21-138): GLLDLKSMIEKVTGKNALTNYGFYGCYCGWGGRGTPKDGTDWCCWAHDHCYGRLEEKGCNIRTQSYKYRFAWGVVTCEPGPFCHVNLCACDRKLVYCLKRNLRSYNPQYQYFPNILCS
Method: GV sPLA2 activity was measured in a similar assay. The final assay buffer was composed of 50 mM Tris-HCl (pH 8.0) and 5 mM CaCl2. Each assay was performed in 500 μL total volume made up of 100 μL of 5× substrate solution (20 μL of 10 mM Triton X-100 and 80 μL assay buffer), 390 μL assay buffer, 10 μL GV sPLA2 solution (1 μL of 40 ng/μL stock and 9 μL assay buffer), and 5 μL of DMSO or 2-oxoamide in DMSO. The 5× substrate solution was prepared by drying down the phospholipids (in organic solvent) with N2. The appropriate volume of 10 mM Triton X-100 was added, heated and vortexed until clear. Then assay buffer was added to make a 5× substrate solution. The final mixed micelles were at 400 μM Triton X-100 and 100 μM DPPC (of which 100,000 cpm of ^14C-DPPC).

CCC(=O)C(N)=O [AX001]
inhibition of GVIA PLA2 (iPLA2), in words [1]: neither exhibits significant inhibition | Inhibition of GVIA PLA2 [1]: ND^a (negligible inhibition (0-25%) at highest dose) | inhibition of GIVA PLA2 (cPLA2), in words [2]: neither exhibits significant inhibition | Inhibition of GIVA PLA2 [2]: ND (negligible inhibition (0-25%) at highest dose)

CCNC(=O)C(=O)CC [AX002]
inhibition of GVIA PLA2 (iPLA2), in words [1]: limited inhibition of GVIA PLA2 | Inhibition of GVIA PLA2 [1]: LD^b (limited inhibition (25-50%) at highest dose) | inhibition of GIVA PLA2 (cPLA2), in words [2]: no detectable inhibition of GIVA PLA2 | Inhibition of GIVA PLA2 [2]: ND (negligible inhibition (0-25%) at highest dose)

CCNC(=O)C(=O)CC [AX009]
inhibition of GVIA PLA2 (iPLA2), in words [1]: limited inhibition of GVIA PLA2 | Inhibition of GVIA PLA2 [1]: LD (limited inhibition (25-50%) at highest dose) | inhibition of GIVA PLA2 (cPLA2), in words [2]: no detectable inhibition of GIVA PLA2 | Inhibition of GIVA PLA2 [2]: ND (negligible inhibition (0-25%) at highest dose)

NC(=O)C(=O)CCCCc1ccccc1 [AX015]
efficacy against sPLA2 (GV sPLA2): 45.3% | inhibition of GVIA PLA2 (iPLA2), in words [1]: neither exhibits significant inhibition; also recorded: no significant activity | Inhibition of GVIA PLA2 [1]: ND (negligible inhibition (0-25%) at highest dose) | inhibition of GIVA PLA2 (cPLA2), in words [2]: neither exhibits significant inhibition; also recorded: no significant activity | Inhibition of GIVA PLA2 [2]: ND (negligible inhibition (0-25%) at highest dose)

O=C(O)CCCNC(=O)C(=O)CCCCc1ccccc1 [AX035, 4-(2-Oxo-6-phenyl-hexanoylamino)-butyric acid]
Inhibition of GVIA PLA2 [1]: ND (negligible inhibition (0-25%) at highest dose) | Inhibition of GIVA PLA2 [2]: ND (negligible inhibition (0-25%) at highest dose) | melting point: 60 to 62 °C

O=C(O)CCCNC(=O)C(=O)CCCc1ccccc1 [AX036, 4-(2-Oxo-5-phenyl-pentanoylamino)-butyric acid]
Inhibition of GVIA PLA2 [1]: ND (negligible inhibition (0-25%) at highest dose) | Inhibition of GIVA PLA2 [2]: ND (negligible inhibition (0-25%) at highest dose) | melting point: 65 to 67 °C

CC/C=C\CC(=O)C(=O)NCCCC(=O)OC(C)(C)C [AX055]
inhibition at 0.091 mole fraction (GV sPLA2): 85.3% | iPLA2 inh, XI(50) [1]: XI(50) =0.054 ± .004 mole fraction | cPLA2 inh, XI(50) [2]: XI(50) =0.014 ± .009 mole fraction

CCC[C@@H](CCCCC(=O)OCC)NC(=O)C(=O)CC [AX065]
inhibition at 0.091 mole fraction (GV sPLA2): 23.2% | iPLA2 inh, XI(50) [1]: XI(50) =0.054 ± .016 mole fraction | inhibition at 0.091 mole fraction [2]: 61.8%

CCOCCCCNC(=O)C(=O)CC [AX081]
inhibition at 0.091 mole fraction (GV sPLA2): 76.5% | inhibition at 0.091 mole fraction [1]: 50.9% | cPLA2 inh, XI(50) [2]: XI(50) =0.018 ± .016 mole fraction

CCCCC(=O)CCCNC(=O)C(=O)CC [AX082]
inhibition at 0.091 mole fraction (GV sPLA2): 7.4% | inhibition at 0.091 mole fraction [2]: 31.8%

CCOC(=O)CCCNC(=O)C(=O)CCc1ccc(OCC)cc1 [AX090]
inhibition at 0.091 mole fraction (GV sPLA2): 51.7% | inhibition at 0.091 mole fraction [1]: 67.3% | cPLA2 inh, XI(50) [2]: XI(50) =0.050 ± .002 mole fraction

CCOC(=O)c1ccc(NC(=O)C(=O)CC)cc1 [AX091]
inhibition at 0.091 mole fraction (GV sPLA2): 66.5% | inhibition at 0.091 mole fraction [1]: 14.3% | cPLA2 inh, XI(50) [2]: XI(50) =0.029 ± .016 mole fraction

CCC[C@@H](/C=C/C(=O)OCC)NC(=O)C(=O)CC [AX093]
inhibition at 0.091 mole fraction (GV sPLA2): 78.3% | inhibition at 0.091 mole fraction [1]: 66.5% | cPLA2 inh, XI(50) [2]: XI(50) =0.031 ± .011 mole fraction

CCOC(=O)CCCCNC(=O)C(=O)CC [AX102]
inhibition at 0.091 mole fraction (GV sPLA2): 47.1% | inhibition at 0.091 mole fraction [1]: 35.3% | inhibition at 0.091 mole fraction [2]: 30.6%

CCOC(=O)CCNC(=O)C(=O)CC [AX104]
inhibition at 0.091 mole fraction (GV sPLA2): 58.8% | inhibition at 0.091 mole fraction [1]: 50.6% | inhibition at 0.091 mole fraction [2]: 44%

CCC(=O)C(=O)NCCCCC(=O)OC(C)(C)C [AX105]
inhibition at 0.091 mole fraction (GV sPLA2): 96.3% | inhibition at 0.091 mole fraction [1]: 61.7% | inhibition at 0.091 mole fraction [2]: 73.8%

CC/C=C\CC(=O)C(=O)NCCCC(=O)OCC [AX110]
inhibition at 0.091 mole fraction (GV sPLA2): 96.6% | inhibition at 0.091 mole fraction [1]: 52.8% | inhibition at 0.091 mole fraction [2]: 69.9%

CCC(=O)C(=O)NCC(=O)OC(C)(C)C [AX111]
inhibition at 0.091 mole fraction (GV sPLA2): 95.9% | inhibition at 0.091 mole fraction [1]: 53.1% | inhibition at 0.091 mole fraction [2]: 79.6%

CCC(=O)C(=O)NCCC(=O)OC(C)(C)C [AX113]
efficacy against sPLA2 (GV sPLA2): about 100% | inhibition at 0.091 mole fraction (GV sPLA2): 100% | inhibition at 0.091 mole fraction [1]: 54% | inhibition at 0.091 mole fraction [2]: 79.2%

CCOC(=O)CNC(=O)C(=O)CC [AX114]
inhibition at 0.091 mole fraction (GV sPLA2): 99.8% | inhibition at 0.091 mole fraction [1]: 61.6% | inhibition at 0.091 mole fraction [2]: 73.7%

CCC(=O)C(=O)NCCCC(=O)OCc1ccccc1 [AX116]
inhibition at 0.091 mole fraction (GV sPLA2): 57.5% | inhibition at 0.091 mole fraction [1]: 10.7% | inhibition at 0.091 mole fraction [2]: 34.8%

CCCC[C@H](NC(=O)C(=O)CC)C(=O)NCC(=O)OC(C)(C)C [AX121]
inhibition at 0.091 mole fraction (GV sPLA2): 58.5% | inhibition at 0.091 mole fraction [1]: 89.6% | inhibition at 0.091 mole fraction [2]: 72%

CCCC[C@@H](COCC(=O)OC(C)(C)C)NC(=O)C(=O)CC [AX122]
inhibition at 0.091 mole fraction (GV sPLA2): 57.2% | inhibition at 0.091 mole fraction [1]: 81% | inhibition at 0.091 mole fraction [2]: 43.6%

C=CCOC(=O)CCCNC(=O)C(=O)CC [AX126]
inhibition at 0.091 mole fraction (GV sPLA2): 37.9% | inhibition at 0.091 mole fraction [1]: 63.2% | inhibition at 0.091 mole fraction [2]: 52.9%

CCC[C@H](NC(=O)C(=O)CC)C(=O)NCC(=O)OCC [AX127]
inhibition at 0.091 mole fraction (GV sPLA2): 63.1% | inhibition at 0.091 mole fraction [1]: 93.9% | inhibition at 0.091 mole fraction [2]: 72.6%

CCC[C@@H](COCC(=O)OCC)NC(=O)C(=O)CC [AX128]
inhibition at 0.091 mole fraction (GV sPLA2): 80.6% | inhibition at 0.091 mole fraction [1]: 92.8% | inhibition at 0.091 mole fraction [2]: 52.3%
